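A five-concentration, 48-hour dose response in 96-well plates underlies each endpoint, interpolated linearly between surrounding concentrations. At the GI50, growth is halved.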 Calls of active or inactive are those of the source. Cut-off read from the data, not from the text of the source: active = GI50 up to about 1.1 µM and inactive = higher.
How the values were obtained:
Test in all cases: growth of human tumour cells (NCI), 48 h
U-251 = test system: U-251
TK-10 = test system: TK-10
SK-OV-3 = test system: SK-OV-3
RPMI-8226 = test system: RPMI-8226
HCT-15 = test system: HCT-15
HOP-62 = test system: HOP-62
HCC 2998 = test system: HCC 2998
HL-60 = test system: HL-60
SF-295 = test system: SF-295
OVCAR-3 = test system: OVCAR-3
K562 = test system: K562
DLD-1 = test system: DLD-1
OVCAR-4 = test system: OVCAR-4
UACC-257 = test system: UACC-257
NCI-H23 = test system: NCI-H23
SR = test system: SR
BT-549 = test system: BT-549
MCF7 = test system: MCF7
MDA-MB-435 = test system: MDA-MB-435
MDA-N = test system: MDA-N

Compound | GI50 (U-251) | GI50 (TK-10) | GI50 (SK-OV-3) | GI50 (RPMI-8226) | GI50 (HCT-15) | GI50 (HOP-62) | GI50 (HCC 2998) | GI50 (HL-60) | GI50 (SF-295) | GI50 (OVCAR-3) | GI50 (K562) | GI50 (DLD-1) | GI50 (OVCAR-4) | GI50 (UACC-257) | GI50 (NCI-H23) | GI50 (SR) | GI50 (BT-549) | GI50 (MCF7) | GI50 (MDA-MB-435) | GI50 (MDA-N)
CN(C)c1snc2c1c(=O)n(C)c(=O)n2C | > 100 µM (inactive) | > 100 µM (inactive) | > 100 µM (inactive) | > 100 µM (inactive) | > 100 µM | > 100 µM (inactive) | > 100 µM (inactive) | > 100 µM (inactive) | > 100 µM (inactive) | > 100 µM (inactive) | > 100 µM (inactive) | > 100 µM (inactive) | > 100 µM (inactive) | > 100 µM (inactive) | > 100 µM (inactive) |  |  |  |  | 
CCOc1ccc(NC2=NC(=O)C(CC(=O)Nc3ccc(Cl)cc3Cl)S2)cc1 (stereo unspecified) | > 100 µM (inactive) | > 100 µM (inactive) | > 100 µM (inactive) | > 100 µM (inactive) | > 100 µM | > 100 µM (inactive) | > 100 µM (inactive) |  | > 100 µM (inactive) | > 100 µM (inactive) | > 100 µM (inactive) | > 100 µM (inactive) | > 100 µM (inactive) | > 100 µM (inactive) | > 100 µM (inactive) |  |  |  |  | 
CC(=O)C1=CCC2c3[nH]c4ccccc4c3CCN2C1 (stereo unspecified) | 54.5 µM (inactive) | > 100 µM (inactive) | 21.6 µM (inactive) |  | 50.8 µM | > 100 µM (inactive) | 55 µM (inactive) | 45.3 µM (inactive) | 98.6 µM (inactive) | 31.7 µM (inactive) | 31 µM (inactive) | 70.3 µM (inactive) | 35.6 µM (inactive) | > 100 µM (inactive) | 46.7 µM (inactive) | 31.8 µM (inactive) |  |  |  | 
COC(=O)C(C(=O)C(=O)Nc1nc2ccc(OC)cc2s1)c1cnc2ccccc2n1 (stereo unspecified) | > 100 µM (inactive) | > 100 µM (inactive) | > 100 µM (inactive) | > 100 µM (inactive) | > 100 µM | > 100 µM (inactive) | > 100 µM (inactive) |  | > 100 µM (inactive) | > 100 µM (inactive) | > 100 µM (inactive) | > 100 µM (inactive) | > 100 µM (inactive) | > 100 µM (inactive) | > 100 µM (inactive) |  |  |  |  | 
CCN1C(=O)C/C(=C\C(C)=O)Nc2ccccc21 | > 100 µM (inactive) | > 100 µM (inactive) | > 100 µM (inactive) |  |  | > 100 µM (inactive) | > 100 µM (inactive) |  | > 100 µM (inactive) | > 100 µM (inactive) | > 100 µM (inactive) | 18.9 µM (inactive) | > 100 µM (inactive) |  | > 100 µM (inactive) | > 100 µM (inactive) |  |  |  | 
Cc1cc(C)nc(NS(=O)(=O)c2ccc(Nc3c4ccccc4nc4ccc(C(=O)Nc5ccc(S(=O)(=O)N=C(N)N)cc5)cc34)cc2)n1 | 60.7 µM (inactive) | > 100 µM (inactive) | > 100 µM (inactive) | 35.7 µM (inactive) | 33.3 µM | > 100 µM (inactive) | > 100 µM (inactive) | 34.3 µM (inactive) | > 100 µM (inactive) | 43.4 µM (inactive) | 25.2 µM (inactive) |  | 55.3 µM (inactive) | 72.3 µM (inactive) | > 100 µM (inactive) | 44.6 µM (inactive) | 30.5 µM (inactive) | 23.2 µM (inactive) | 48.4 µM (inactive) | > 100 µM (inactive)
CCOC(=O)N1c2c(ccn2C)-c2ccn(C)c2N1C(=O)OCC |  |  | 30.6 µM (inactive) | 20.9 µM (inactive) | 12.9 µM | > 100 µM (inactive) | 19.6 µM (inactive) | 5.09 µM (inactive) | 15.3 µM (inactive) | 14.1 µM (inactive) | 4.2 µM (inactive) | 13.6 µM (inactive) | > 10 µM (inactive) | > 10 µM (inactive) |  | 15.8 µM (inactive) |  |  |  | 
c1ccc(-c2cc(-c3ccncc3)cc(-c3ccncc3)n2)cc1 | 51.3 µM (inactive) | > 100 µM (inactive) | 80.7 µM (inactive) | > 100 µM (inactive) | > 100 µM | 33.3 µM (inactive) | > 100 µM (inactive) | > 100 µM (inactive) | 62.2 µM (inactive) | > 100 µM (inactive) | > 100 µM (inactive) |  | > 100 µM (inactive) | > 100 µM (inactive) | > 100 µM (inactive) | > 100 µM (inactive) | > 100 µM (inactive) | 0.618 µM (active) | > 100 µM (inactive) | > 100 µM (inactive)
COC(=O)/C=C/[C@@H]1[C@H](C)N1S(=O)(=O)c1ccc(C)cc1 (stereo partly specified) | > 100 µM (inactive) | > 100 µM (inactive) | > 100 µM (inactive) | > 100 µM (inactive) | > 100 µM | > 100 µM (inactive) | > 100 µM (inactive) | > 100 µM (inactive) | > 100 µM (inactive) | > 100 µM (inactive) | > 100 µM (inactive) |  | > 100 µM (inactive) | > 100 µM (inactive) | > 100 µM (inactive) | > 100 µM (inactive) | > 100 µM (inactive) | > 100 µM (inactive) | > 100 µM (inactive) | > 100 µM (inactive)
COc1ccc2c(c1)CC[C@@H]1C2CC[C@]2(C)OC(=O)CCC12 (stereo partly specified) | 6.87 µM (inactive) | 34.2 µM (inactive) | > 100 µM (inactive) | 5.77 µM (inactive) | 17.5 µM | 25 µM (inactive) | > 100 µM (inactive) | > 100 µM (inactive) | 18.3 µM (inactive) | 11.6 µM (inactive) | 3.01 µM (inactive) |  | 6.12 µM (inactive) | 12.8 µM (inactive) | 12.6 µM (inactive) | 5.12 µM (inactive) | 11.4 µM (inactive) | 15 µM (inactive) | 26.5 µM (inactive) | 20.3 µM (inactive)
O=C(Nc1nc2ncn(CCNCCn3cnc4nc(NC(=O)c5ccccc5)[nH]c(=O)c43)c2c(=O)[nH]1)c1ccccc1 | > 100 µM (inactive) | > 100 µM (inactive) | > 100 µM (inactive) | > 100 µM (inactive) | > 100 µM | > 100 µM (inactive) | > 100 µM (inactive) | > 100 µM (inactive) | > 100 µM (inactive) | > 100 µM (inactive) | > 100 µM (inactive) | > 100 µM (inactive) | > 100 µM (inactive) | > 100 µM (inactive) | > 100 µM (inactive) |  |  |  |  | 
CC1=C(C)C(=O)O[C@@H]([C@](C)(O)[C@]2(O)CC[C@@]3(O)[C@@H]4C[C@H](O)[C@]5(O)[C@@H](O)C=CC(=O)[C@]5(C)[C@H]4CC[C@]23C)C1 | 89.9 µM (inactive) | > 100 µM (inactive) | > 100 µM (inactive) | 49.9 µM (inactive) | > 100 µM | > 100 µM (inactive) | > 100 µM (inactive) | 18 µM (inactive) | > 100 µM (inactive) | > 100 µM (inactive) | 67.3 µM (inactive) |  | > 100 µM (inactive) | > 100 µM (inactive) | > 100 µM (inactive) | 31.3 µM (inactive) | > 100 µM (inactive) | 46.2 µM (inactive) | 87.9 µM (inactive) | 93.1 µM (inactive)
Cn1c2c(cc(-c3ccccc3)c1=O)COc1ccccc1-2 | 41.6 µM (inactive) |  | 37.8 µM (inactive) | 20.2 µM (inactive) | 32.1 µM | 42.3 µM (inactive) | 24.8 µM (inactive) | 29.8 µM (inactive) | 25.8 µM (inactive) | 26.4 µM (inactive) | 23.9 µM (inactive) | 36.6 µM (inactive) | 37.8 µM (inactive) | 36.9 µM (inactive) | 26.9 µM (inactive) | 39.1 µM (inactive) |  |  |  | 
N=CCCN(CCC=N)c1ccc(/C=C2\CN(NC(=O)c3ccc(Cl)cc3)C(c3ccccc3)=N2)cc1 | 25.8 µM (inactive) | > 100 µM (inactive) | > 100 µM (inactive) | 26.4 µM (inactive) | > 100 µM | > 100 µM (inactive) | > 100 µM (inactive) | > 100 µM (inactive) | > 100 µM (inactive) | > 100 µM (inactive) | > 100 µM (inactive) | > 100 µM (inactive) | > 100 µM (inactive) | > 100 µM (inactive) | > 100 µM (inactive) |  |  |  |  | 
COC(=O)[C@@]12CC(C(C)C)[C@H]3CC(C(=O)C=C1OC)[C@H]32 (stereo partly specified) | > 100 µM (inactive) | > 100 µM (inactive) | > 100 µM (inactive) | > 100 µM (inactive) | > 100 µM | > 100 µM (inactive) | > 100 µM (inactive) | > 100 µM (inactive) | > 100 µM (inactive) | > 100 µM (inactive) | 85.5 µM (inactive) | > 100 µM (inactive) | > 100 µM (inactive) | > 100 µM (inactive) | > 100 µM (inactive) |  |  |  |  | 
C[C@@H]1O[C@@H](O[C@H]2[C@H](Oc3cc(O)c4c(=O)cc(-c5ccc(O)cc5)oc4c3)O[C@H](CO)[C@@H](O)[C@@H]2O)[C@H](O)[C@H](O)[C@H]1O [RHOIFOLIN] | > 100 µM (inactive) | > 100 µM (inactive) | > 100 µM (inactive) | > 100 µM (inactive) | > 100 µM | > 100 µM (inactive) |  | > 100 µM (inactive) | > 100 µM (inactive) | > 100 µM (inactive) | > 100 µM (inactive) | > 100 µM (inactive) | > 100 µM (inactive) | > 100 µM (inactive) | > 100 µM (inactive) |  |  |  |  | 
C=CC(COC(=O)C(C)(C)OC(C)=O)c1ccc(OC(=O)C(C)C)c(OC)c1 (stereo unspecified) | 3.59 µM (inactive) | 8.57 µM (inactive) | 16.5 µM (inactive) | 3.78 µM (inactive) | 2.03 µM | 10.1 µM (inactive) | 3.66 µM (inactive) | 4.6 µM (inactive) | 4.23 µM (inactive) | 4.76 µM (inactive) | 30.5 µM (inactive) |  | 7.89 µM (inactive) | 14.6 µM (inactive) | 18.8 µM (inactive) | 2.56 µM (inactive) | 8.87 µM (inactive) | 2.51 µM (inactive) | 8.91 µM (inactive) | 3.52 µM (inactive)
